Consider seven compounds from PubChem BioAssay (NCI).

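Exposure lasted 48 hours, with cells grown in 96-well plates and compounds tested at five concentrations. GI50: concentration for 50% inhibition of growth. TGI: concentration producing complete growth inhibition.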 Where only a bound is given, the exact number is not on record here.

Test systems include OVCAR-5 ovarian; SF-268 CNS; SN12C renal; NCI/ADR-RES ovarian; SNB-19 CNS; NCI-H226 lung; PC-3 prostate; SK-MEL-5 melanoma; MDA-MB-231 breast; SK-MEL-28 melanoma.
Holding throughout (assay): NCI anticancer screen, dose series, 48 h

`COC(=O)[C@]12CC[C@@H](C)[C@H](C)[C@@H]1C1=CC[C@@H]3[C@@]4(C)C(C=O)=C[C@@](C)(COC(=O)c5ccco5)[C@@H]4[C@H](O)C[C@@]3(C)[C@]1(C)CC2`: the GI50 was 3 µM with OVCAR-5 ovarian; 2.66 µM in the assay on SF-268 CNS; 3.44 µM in the assay on SN12C renal; 2.76 µM in the assay on NCI/ADR-RES ovarian; 4.32 µM with SNB-19 CNS; 1.94 µM in the assay with NCI-H226 lung. In addition, the GI50 in the assay with PC-3 prostate is 1.29 µM; in the assay with SK-MEL-5 melanoma, 0.453 µM; with MDA-MB-231 breast it was 2.49 µM; with SK-MEL-28 melanoma it was 0.0918 µM. The TGI was 9.72 µM in the assay on OVCAR-5 ovarian; 12.6 µM with SF-268 CNS; 83.2 µM with SN12C renal; 12 µM with NCI/ADR-RES ovarian; 30.8 µM in the assay with SNB-19 CNS; 4.14 µM with NCI-H226 lung. In addition, the TGI in the assay with PC-3 prostate is 7.55 µM; with SK-MEL-5 melanoma, 1.65 µM; in the assay with MDA-MB-231 breast, 5.83 µM; with SK-MEL-28 melanoma, 2.64 µM.

In the case of `COc1cc2c3c(n(CCCN(CCO)CCO)c(=O)c2cc1OC)-c1cc2c(cc1C3=O)OCO2`, the GI50 in the assay on OVCAR-5 ovarian was 0.209 µM; in the assay with SF-268 CNS, below 0.0332 µM; in the assay with SN12C renal, below 0.01 µM; with NCI/ADR-RES ovarian, 0.117 µM; with SNB-19 CNS, 0.603 µM; in the assay with NCI-H226 lung it was 0.0377 µM. Also, the GI50 was below 0.0159 µM in the assay with SK-MEL-5 melanoma, 0.583 µM with MDA-MB-231 breast and 2.27 µM in the assay with SK-MEL-28 melanoma. In addition, the TGI in the assay with OVCAR-5 ovarian is 1.31 µM; in the assay with SF-268 CNS it was 7.26 µM; with SN12C renal, 0.285 µM; in the assay on SNB-19 CNS it was above 35.5 µM; in the assay on NCI-H226 lung, 0.724 µM; with PC-3 prostate, 2.12 µM. The TGI in the assay on SK-MEL-5 melanoma was found to be 0.413 µM; with MDA-MB-231 breast, 2.42 µM; in the assay with SK-MEL-28 melanoma, 26.6 µM.

As to `NCCCOc1cc2ccccc2cc1C(=O)NCCCOc1cc2ccccc2cc1C(=O)Nc1ccc(Cl)cc1O`, the GI50 with OVCAR-5 ovarian is 1.09 µM; with SF-268 CNS, 0.904 µM; with SN12C renal it was 1.73 µM; with NCI/ADR-RES ovarian, 1.22 µM; with SNB-19 CNS it was 0.72 µM; with NCI-H226 lung it was 0.477 µM. The GI50 in the assay with PC-3 prostate was 0.306 µM; in the assay with SK-MEL-5 melanoma it was 1.36 µM; in the assay on MDA-MB-231 breast it was 0.629 µM; in the assay with SK-MEL-28 melanoma it was 0.289 µM. Further, the TGI in the assay on OVCAR-5 ovarian was 2.56 µM; with SF-268 CNS it was 3.17 µM; in the assay on SN12C renal it was 3.83 µM; with NCI/ADR-RES ovarian, 6.01 µM; in the assay with SNB-19 CNS, 2.88 µM; in the assay with NCI-H226 lung, 1.11 µM. Further, the TGI in the assay on PC-3 prostate was 0.974 µM; with SK-MEL-5 melanoma, 2.8 µM; with MDA-MB-231 breast, 1.82 µM; in the assay on SK-MEL-28 melanoma, 0.728 µM.

`Nc1c(C(=O)Nc2ccccc2Cl)sc2nc3c(cc12)C(=O)CCC3`: the GI50 in the assay with OVCAR-5 ovarian is above 100 µM; in the assay on SF-268 CNS it was 39.3 µM; in the assay with SN12C renal, above 100 µM; with NCI/ADR-RES ovarian it was 5.34 µM; with SNB-19 CNS it was 12.5 µM; with NCI-H226 lung, 14.6 µM. The GI50 in the assay with PC-3 prostate is 1.16 µM; with SK-MEL-5 melanoma it was 1.02 µM; in the assay on MDA-MB-231 breast, 6.97 µM; in the assay on SK-MEL-28 melanoma, 22.4 µM. The TGI in the assay on OVCAR-5 ovarian, in the assay on SF-268 CNS, with SN12C renal, with NCI/ADR-RES ovarian, in the assay with SNB-19 CNS and with NCI-H226 lung was above 100 µM each time. Further, the TGI in the assay on PC-3 prostate, with SK-MEL-5 melanoma, with MDA-MB-231 breast and with SK-MEL-28 melanoma was above 100 µM throughout.

In the case of `Cn1cc(-c2csc(-c3cn(C)c4ccc(F)cc34)n2)c2cnccc21`, the GI50 in the assay with OVCAR-5 ovarian is 1.68 µM; in the assay with SF-268 CNS, 1.93 µM; with SN12C renal, 1.7 µM; in the assay on NCI/ADR-RES ovarian it was 2.03 µM; with SNB-19 CNS, 1.82 µM; in the assay with NCI-H226 lung, 2.05 µM. Further, the GI50 in the assay on PC-3 prostate was 1.71 µM; in the assay with SK-MEL-5 melanoma it was 1.66 µM; in the assay on MDA-MB-231 breast, 1.75 µM; with SK-MEL-28 melanoma it was 1.79 µM. Besides, the TGI in the assay on OVCAR-5 ovarian turned out to be 3.15 µM; with SF-268 CNS it was 3.79 µM; with SN12C renal, 3.14 µM; in the assay on NCI/ADR-RES ovarian, 4.02 µM; in the assay on SNB-19 CNS, 3.3 µM; in the assay with NCI-H226 lung it was 4.26 µM. In addition, the TGI in the assay with PC-3 prostate came out at 3.31 µM; in the assay with SK-MEL-5 melanoma, 3.05 µM; with MDA-MB-231 breast it was 3.26 µM; in the assay on SK-MEL-28 melanoma, 3.22 µM.

With `Oc1ccc(N=Nc2nccs2)c(O)c1`, the GI50 is 7.84 µM with OVCAR-5 ovarian; 4.35 µM in the assay with SF-268 CNS; 9.42 µM in the assay on SN12C renal; 2.58 µM in the assay on NCI/ADR-RES ovarian; 11.5 µM in the assay with SNB-19 CNS; 12.4 µM in the assay with NCI-H226 lung. The GI50 with PC-3 prostate is 8.08 µM; with SK-MEL-5 melanoma it was 3.44 µM; in the assay on MDA-MB-231 breast, 8.77 µM; in the assay on SK-MEL-28 melanoma, 10.4 µM. The TGI in the assay with OVCAR-5 ovarian came out at 29.4 µM; in the assay with SF-268 CNS, 38.7 µM; with SN12C renal, 38.7 µM; in the assay on NCI/ADR-RES ovarian it was 9.1 µM; in the assay with SNB-19 CNS, 53.1 µM; in the assay with NCI-H226 lung, 45.1 µM. Moreover, the TGI in the assay on PC-3 prostate is 48.8 µM; in the assay with SK-MEL-5 melanoma, 18.4 µM; in the assay on MDA-MB-231 breast, above 100 µM; with SK-MEL-28 melanoma it was 30.7 µM.

`NC(N)=N/N=C(\N=Nc1ccccc1)c1ccc(Cl)cc1`: the GI50 was 3.69 µM with OVCAR-5 ovarian; 3.53 µM with SF-268 CNS; 4.65 µM with SN12C renal; 2.76 µM in the assay with NCI/ADR-RES ovarian; 12 µM in the assay with SNB-19 CNS; 3.66 µM in the assay on NCI-H226 lung. Further, the GI50 was 2.48 µM with PC-3 prostate, 3.73 µM with SK-MEL-5 melanoma, 1.9 µM with MDA-MB-231 breast and 1.98 µM in the assay with SK-MEL-28 melanoma. Moreover, the TGI in the assay on OVCAR-5 ovarian turned out to be 16.8 µM; in the assay with SF-268 CNS, 15.7 µM; in the assay on SN12C renal, 22.1 µM; in the assay with NCI/ADR-RES ovarian, 10.4 µM; with SNB-19 CNS it was 35.5 µM; with NCI-H226 lung it was 18.8 µM. In addition, the TGI is 11.3 µM in the assay on PC-3 prostate, 14.8 µM in the assay on SK-MEL-5 melanoma, 12.7 µM in the assay on MDA-MB-231 breast and 4.59 µM with SK-MEL-28 melanoma.
